Assay results from the NIST ThermoML archive (doi:10.1021/je300972a).

Experiment: refractive index (Na D-line) (dimensionless); xn = mol fraction of the nth substance listed
Settings: 101 kPa, Liquid, Standard Abbe refractometry

CCCC[n+]1ccc(C)cc1.O=S(=O)([N-]S(=O)(=O)C(F)(F)F)C(F)(F)F + CCCC[n+]1ccccc1.F[B-](F)(F)F
refractive index
Settings | 293.15 K | 303.15 K | 313.15 K | 323.15 K | 333.15 K | 343.15 K | 353.15 K
x2 = 0 | 1.448 | 1.4449 | 1.4419 | 1.4388 | 1.4358 | 1.4328 | 1.4298
x2 = 0.0575 | 1.4479 | 1.4448 | 1.4418 | 1.4388 | 1.4357 | 1.4328 | 1.4298
x2 = 0.1136 | 1.4477 | 1.4446 | 1.4416 | 1.4386 | 1.4356 | 1.4327 | 1.4297
x2 = 0.2311 | 1.4474 | 1.4444 | 1.4414 | 1.4385 | 1.4356 | 1.4327 | 1.4298
x2 = 0.3515 | 1.4472 | 1.4443 | 1.4414 | 1.4385 | 1.4356 | 1.4327 | 1.4299
x2 = 0.4566 | 1.4471 | 1.4441 | 1.4413 | 1.4384 | 1.4356 | 1.4328 | 1.43
x2 = 0.5692 | 1.4469 | 1.4441 | 1.4413 | 1.4385 | 1.4357 | 1.433 | 1.4302
x2 = 0.673 | 1.4468 | 1.444 | 1.4413 | 1.4385 | 1.4358 | 1.4331 | 1.4304
x2 = 0.7836 | 1.4468 | 1.4441 | 1.4413 | 1.4386 | 1.4359 | 1.4333 | 1.4306
x2 = 0.889 | 1.4469 | 1.4442 | 1.4416 | 1.4389 | 1.4362 | 1.4336 | 1.431
x2 = 0.9535 | 1.447 | 1.4443 | 1.4417 | 1.439 | 1.4364 | 1.4338 | 1.4313
